From PubChem BioAssay AID328 (DTP/NCI, 2004)
Several values for one entry are separate records, joined by “and”; a condition that tells them apart may be missing. Equal entries are not always repeated. Toxic doses and inconclusive results are not listed.

System: BDF1 mice, P388 leukemia ip, median survival T/C
Test: NCI In Vivo Anticancer Drug Screen. Data for tumor model P388 Leukemia (intraperitoneal) in B6D2F1 (BDF1) mice
Settings: endpoint: median survival time, higher = longer survival
How it was run: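 Compound-treated tumour-bearing mice were compared with vehicle-treated controls. Survival was recorded, and the value is the treated-group measurement divided by the control-group measurement (T/C).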

[1] = dose: 50.0 mg/kg/injection, schedule: Q04DX003 (ip), vehicle: saline with Tween-80
[2] = dose: 100.0 mg/kg/injection, schedule: Q04DX003 (ip), vehicle: saline with Tween-80
[3] = dose: 25.0 mg/kg/injection, schedule: Q01DX009 (ip), vehicle: saline with Tween-80
[4] = dose: 50.0 mg/kg/injection, schedule: Q01DX009 (ip), vehicle: saline with Tween-80
[5] = dose: 100.0 mg/kg/injection, schedule: Q01DX009 (ip), vehicle: saline with Tween-80
[6] = dose: 200.0 mg/kg/injection, schedule: Q01DX009 (ip), vehicle: saline with Tween-80

CCCCN(CCCC)CC(C)O (stereo not drawn) was tested, and the T/C (dose: 25.0 mg/kg/injection, schedule: Q04DX003 (ip), vehicle: saline with Tween-80) was 100 % of control, the T/C [1] was 104 % of control and the T/C [2] was 100 % of control.

In the case of COC(=O)C1c2cc3c(cc2C(OC2OC(C)C(OC)C(C)(OC)C2OC)CC1(C)O)C(=O)c1c(O)cc2c(c1C3=O)OC1OC2(C)C(O)C([N+](C)(C)[O-])C1O (stereo not drawn), the T/C (dose: 3.13 mg/kg/injection, schedule: Q01DX010 (ip), vehicle: saline) is reported as 150 % of control, the T/C (dose: 6.25 mg/kg/injection, schedule: Q01DX010 (ip), vehicle: saline) is reported as 165 % of control and the T/C (dose: 12.5 mg/kg/injection, schedule: Q01DX010 (ip), vehicle: saline) is reported as 95 % of control.

For CC(=O)O.[Au].c1ccc([PH+](c2ccccc2)c2ccccc2)cc1, the T/C [2] was 110 % of control.

In the case of COC1=C(NCc2ccccc2)C(=O)C(OC)=C(NCc2ccccc2)C1=O, the T/C (dose: 100.0 mg/kg/injection, schedule: Q01DX009 (ip), vehicle: Klucel (hydroxypropylcellulose) (HPC)) is reported as 90 % of control, the T/C (dose: 100.0 mg/kg/injection, schedule: Q04DX003 (ip), vehicle: Klucel (hydroxypropylcellulose) (HPC)) is reported as 95 % of control and the T/C (dose: 200.0 mg/kg/injection, schedule: Q01DX009 (ip), vehicle: Klucel (hydroxypropylcellulose) (HPC)) is reported as 100 % of control. For the same compound, the T/C (dose: 200.0 mg/kg/injection, schedule: Q04DX003 (ip), vehicle: Klucel (hydroxypropylcellulose) (HPC)) was 86 % of control, the T/C (dose: 400.0 mg/kg/injection, schedule: Q01DX009 (ip), vehicle: Klucel (hydroxypropylcellulose) (HPC)) was 100 % of control and the T/C (dose: 400.0 mg/kg/injection, schedule: Q04DX003 (ip), vehicle: Klucel (hydroxypropylcellulose) (HPC)) was 95 % of control.

For CS(=O)(=NC(=S)Nc1ccccc1)c1ccccc1 (stereo not drawn), the T/C (dose: 75.0 mg/kg/injection, schedule: Q01DX001 (ip), vehicle: other) was 115 % of control, the T/C (dose: 150.0 mg/kg/injection, schedule: Q01DX001 (ip), vehicle: other) was 95 % of control and the T/C (dose: 300.0 mg/kg/injection, schedule: Q01DX001 (ip), vehicle: other) was 100 % of control.

With CN1CCCC1CCNc1nc(C(Cl)(Cl)Cl)nc2ccc(Cl)cc12 (stereo not drawn) the T/C [3] was 100 % of control, the T/C [4] was 100 % of control and the T/C [1] was 104 % of control. For the same compound, the T/C [2] was 104 % of control.

In the case of CCOC(=O)C1=C(C)NC(=O)NC1c1ccc(N=Cc2cc(Br)ccc2O)cc1 (stereo not drawn), the T/C (dose: 75.0 mg/kg/injection, schedule: Q01DX001 (ip), vehicle: saline with Tween-80) is reported as 95 % of control, the T/C (dose: 150.0 mg/kg/injection, schedule: Q01DX001 (ip), vehicle: saline with Tween-80) is reported as 90 % of control and the T/C (dose: 300.0 mg/kg/injection, schedule: Q01DX001 (ip), vehicle: saline with Tween-80) is reported as 90 % of control.

For COc1ccc(Cc2ccc(O)cc2)cc1, the T/C (dose: 100.0 mg/kg/injection, schedule: Q04DX003 (ip), vehicle: other) was 100 % of control, the T/C (dose: 200.0 mg/kg/injection, schedule: Q04DX003 (ip), vehicle: other) was 119 % of control and the T/C (dose: 400.0 mg/kg/injection, schedule: Q04DX003 (ip), vehicle: other) was 119 % of control.

In the case of NNC(=O)CCc1ccccc1Br, the T/C [3] is reported as 100 % of control and the T/C [4] is reported as 100 % of control.

In the case of CC(Cc1ccc2ccccc2c1)C(=O)c1ccc2ccccc2c1 (stereo not drawn), the T/C (dose: 100.0 mg/kg/injection, schedule: Q01DX001 (ip), vehicle: saline with Tween-80) is reported as 100 % of control, the T/C (dose: 200.0 mg/kg/injection, schedule: Q01DX001 (ip), vehicle: saline with Tween-80) is reported as 100 % of control and the T/C (dose: 400.0 mg/kg/injection, schedule: Q01DX001 (ip), vehicle: saline with Tween-80) is reported as 100 % of control.

With CC1CCCCN1CCNc1ccc(CO)c2sc3ccccc3c(=O)c12 (stereo not drawn) the T/C [3] was 115 % of control, the T/C (dose: 44.0 mg/kg/injection, schedule: Q01DX009 (ip), vehicle: saline with Tween-80) was 119 % of control and the T/C [4] was 119 % of control. The T/C [5] was 192 % of control and 210 % of control, the T/C (dose: 150.0 mg/kg/injection, schedule: Q01DX009 (ip), vehicle: saline with Tween-80) was 278 % of control and the T/C [6] was 97 % of control.

With OC[C@@H](O)[C@@H](O)CO the T/C (dose: 100.0 mg/kg/injection, schedule: Q01DX010 (ip), vehicle: saline) was 90 % of control and the T/C (dose: 400.0 mg/kg/injection, schedule: Q01DX010 (ip), vehicle: saline) was 110 % of control.

For CCN(C(=O)Nc1cccc2ccccc12)c1ccccc1, the T/C (dose: 50.0 mg/kg/injection, schedule: Q01DX001 (ip), vehicle: other) was 95 % of control, the T/C (dose: 100.0 mg/kg/injection, schedule: Q01DX001 (ip), vehicle: other) was 95 % of control and the T/C (dose: 200.0 mg/kg/injection, schedule: Q01DX001 (ip), vehicle: other) was 100 % of control.

For O=C1c2ccccc2C(=O)N1CN1C(=O)c2ccccc2C1=O, the T/C [1] was 95 % of control, the T/C [2] was 90 % of control and the T/C (dose: 200.0 mg/kg/injection, schedule: Q04DX003 (ip), vehicle: saline with Tween-80) was 86 % of control.

CC(=O)NC(C(=O)N/N=C(\C)c1ccccc1)C(=O)N/N=C(\C)c1ccccc1 was tested, and the T/C [4] was 98 % of control, the T/C [5] was 101 % of control and the T/C [6] was 89 % of control.
